Results on five compounds are retold here after PubChem BioAssay AID2060494 (Molecular Pharmacology Branch, DTP, NCI, 2025).
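Also: spheroids exposed to the agents for seven days before readout; percent of vehicle control viability with DMSO wells as 100%.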

The first experiment has as its system 435261-313-R-J1-PDC complex spheroid viability. Description: Anticancer human tumor 435261-313-R-J1-PDC patient-derived colon adenocarcinoma cell line growth inhibition [GQUAD]. The note with it: second compound 1 µM; first compound 0.316 µM; active compounds read low. An outline of the steps:
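Multi-cell-type spheroids of tumor cells with HUVEC and mesenchymal stem cells, treated with drug combinations. Concentrations descend in half-log steps from near clinical Cmax, or from 10 microM where Cmax is unknown; viability read-out.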
The viability, T/C is the result in the treated group divided by that in the control group, in per cent. For `CC1COCCN1c1cc(-c2ccnn2C)c2ccnc(-c3ccn[nH]3)c2n1` (stereo unspecified) + CN(C)c1ccc(Nc2c3ccc(NC(=O)CCN4CCCC4)cc3nc3cc(NC(=O)CCN4CCCC4)ccc23)cc1, the viability, T/C is 61.8%.

For `CC1COCCN1c1cc(C2(S(C)(=N)=O)CC2)nc(-c2ccnc3[nH]ccc23)n1` (stereo unspecified) + CN(C)c1ccc(Nc2c3ccc(NC(=O)CCN4CCCC4)cc3nc3cc(NC(=O)CCN4CCCC4)ccc23)cc1, the viability, T/C was 87.6%.

Take `COc1ccc([C@@H](O)c2cc(-c3ncnc4cc(N5CCOCC5)ccc34)c(F)cc2Cl)nn1` + CN(C)c1ccc(Nc2c3ccc(NC(=O)CCN4CCCC4)cc3nc3cc(NC(=O)CCN4CCCC4)ccc23)cc1: the viability, T/C is 70.9%.

For `O=C(c1cc(Cc2n[nH]c(=O)c3ccccc23)ccc1F)N1CCN(C(=O)C2CC2)CC1` + CN(C)c1ccc(Nc2c3ccc(NC(=O)CCN4CCCC4)cc3nc3cc(NC(=O)CCN4CCCC4)ccc23)cc1, the viability, T/C is 70.1%.

Staying with this experiment, now noted: second compound 1 µM; first compound 1 µM; active compounds read low.
As to `CC(C)n1c(=O)n(C)c2cnc3cc(F)c(-c4ccc(OCCCN5CCCCC5)nc4)cc3c21` + CN(C)c1ccc(Nc2c3ccc(NC(=O)CCN4CCCC4)cc3nc3cc(NC(=O)CCN4CCCC4)ccc23)cc1, the viability, T/C is 63.7%.

As for `CC1COCCN1c1cc(-c2ccnn2C)c2ccnc(-c3ccn[nH]3)c2n1` (stereo unspecified) + CN(C)c1ccc(Nc2c3ccc(NC(=O)CCN4CCCC4)cc3nc3cc(NC(=O)CCN4CCCC4)ccc23)cc1, the viability, T/C was 48.2%.

Consider `CC1COCCN1c1cc(C2(S(C)(=N)=O)CC2)nc(-c2ccnc3[nH]ccc23)n1` (stereo unspecified) + CN(C)c1ccc(Nc2c3ccc(NC(=O)CCN4CCCC4)cc3nc3cc(NC(=O)CCN4CCCC4)ccc23)cc1, for which the viability, T/C was 81.4%.

On to `COc1ccc([C@@H](O)c2cc(-c3ncnc4cc(N5CCOCC5)ccc34)c(F)cc2Cl)nn1` + CN(C)c1ccc(Nc2c3ccc(NC(=O)CCN4CCCC4)cc3nc3cc(NC(=O)CCN4CCCC4)ccc23)cc1, for which the viability, T/C is 64.5%.

On to `O=C(c1cc(Cc2n[nH]c(=O)c3ccccc23)ccc1F)N1CCN(C(=O)C2CC2)CC1` + CN(C)c1ccc(Nc2c3ccc(NC(=O)CCN4CCCC4)cc3nc3cc(NC(=O)CCN4CCCC4)ccc23)cc1, for which the viability, T/C is 70%.

The same experiment, now with this note: second compound 1 µM; first compound 3.16 µM; active compounds read low.
For the compound `CC(C)n1c(=O)n(C)c2cnc3cc(F)c(-c4ccc(OCCCN5CCCCC5)nc4)cc3c21` + CN(C)c1ccc(Nc2c3ccc(NC(=O)CCN4CCCC4)cc3nc3cc(NC(=O)CCN4CCCC4)ccc23)cc1, the viability, T/C is 70.3%.

For `CC1COCCN1c1cc(-c2ccnn2C)c2ccnc(-c3ccn[nH]3)c2n1` (stereo unspecified) + CN(C)c1ccc(Nc2c3ccc(NC(=O)CCN4CCCC4)cc3nc3cc(NC(=O)CCN4CCCC4)ccc23)cc1, the viability, T/C is 35%.

On to `CC1COCCN1c1cc(C2(S(C)(=N)=O)CC2)nc(-c2ccnc3[nH]ccc23)n1` (stereo unspecified) + CN(C)c1ccc(Nc2c3ccc(NC(=O)CCN4CCCC4)cc3nc3cc(NC(=O)CCN4CCCC4)ccc23)cc1, for which the viability, T/C is 79%.

Take `COc1ccc([C@@H](O)c2cc(-c3ncnc4cc(N5CCOCC5)ccc34)c(F)cc2Cl)nn1` + CN(C)c1ccc(Nc2c3ccc(NC(=O)CCN4CCCC4)cc3nc3cc(NC(=O)CCN4CCCC4)ccc23)cc1: the viability, T/C was 44.2%.

In the case of `O=C(c1cc(Cc2n[nH]c(=O)c3ccccc23)ccc1F)N1CCN(C(=O)C2CC2)CC1` + CN(C)c1ccc(Nc2c3ccc(NC(=O)CCN4CCCC4)cc3nc3cc(NC(=O)CCN4CCCC4)ccc23)cc1, the viability, T/C was 95.8%.

The same experiment, now with this note: second compound 1 µM; first compound 10 µM; active compounds read low.
Turning to `CC(C)n1c(=O)n(C)c2cnc3cc(F)c(-c4ccc(OCCCN5CCCCC5)nc4)cc3c21` + CN(C)c1ccc(Nc2c3ccc(NC(=O)CCN4CCCC4)cc3nc3cc(NC(=O)CCN4CCCC4)ccc23)cc1, the viability, T/C was 40%.

On to `CC1COCCN1c1cc(-c2ccnn2C)c2ccnc(-c3ccn[nH]3)c2n1` (stereo unspecified) + CN(C)c1ccc(Nc2c3ccc(NC(=O)CCN4CCCC4)cc3nc3cc(NC(=O)CCN4CCCC4)ccc23)cc1, for which the viability, T/C was 17.2%.

On to `CC1COCCN1c1cc(C2(S(C)(=N)=O)CC2)nc(-c2ccnc3[nH]ccc23)n1` (stereo unspecified) + CN(C)c1ccc(Nc2c3ccc(NC(=O)CCN4CCCC4)cc3nc3cc(NC(=O)CCN4CCCC4)ccc23)cc1, for which the viability, T/C was 51.2%.

`COc1ccc([C@@H](O)c2cc(-c3ncnc4cc(N5CCOCC5)ccc34)c(F)cc2Cl)nn1` + CN(C)c1ccc(Nc2c3ccc(NC(=O)CCN4CCCC4)cc3nc3cc(NC(=O)CCN4CCCC4)ccc23)cc1: the viability, T/C was 23.9%.

As for `O=C(c1cc(Cc2n[nH]c(=O)c3ccccc23)ccc1F)N1CCN(C(=O)C2CC2)CC1` + CN(C)c1ccc(Nc2c3ccc(NC(=O)CCN4CCCC4)cc3nc3cc(NC(=O)CCN4CCCC4)ccc23)cc1, the viability, T/C was 69.2%.

Staying with this experiment, now noted: second compound 3.16 µM; first compound 0.0316 µM; active compounds read low.
With `CC(C)n1c(=O)n(C)c2cnc3cc(F)c(-c4ccc(OCCCN5CCCCC5)nc4)cc3c21` + CN(C)c1ccc(Nc2c3ccc(NC(=O)CCN4CCCC4)cc3nc3cc(NC(=O)CCN4CCCC4)ccc23)cc1, the viability, T/C was 63.7%.

In the case of `CC1COCCN1c1cc(-c2ccnn2C)c2ccnc(-c3ccn[nH]3)c2n1` (stereo unspecified) + CN(C)c1ccc(Nc2c3ccc(NC(=O)CCN4CCCC4)cc3nc3cc(NC(=O)CCN4CCCC4)ccc23)cc1, the viability, T/C was 89%.

Take `CC1COCCN1c1cc(C2(S(C)(=N)=O)CC2)nc(-c2ccnc3[nH]ccc23)n1` (stereo unspecified) + CN(C)c1ccc(Nc2c3ccc(NC(=O)CCN4CCCC4)cc3nc3cc(NC(=O)CCN4CCCC4)ccc23)cc1: the viability, T/C was 61.1%.

For the compound `COc1ccc([C@@H](O)c2cc(-c3ncnc4cc(N5CCOCC5)ccc34)c(F)cc2Cl)nn1` + CN(C)c1ccc(Nc2c3ccc(NC(=O)CCN4CCCC4)cc3nc3cc(NC(=O)CCN4CCCC4)ccc23)cc1, the viability, T/C is 59.7%.

For the compound `O=C(c1cc(Cc2n[nH]c(=O)c3ccccc23)ccc1F)N1CCN(C(=O)C2CC2)CC1` + CN(C)c1ccc(Nc2c3ccc(NC(=O)CCN4CCCC4)cc3nc3cc(NC(=O)CCN4CCCC4)ccc23)cc1, the viability, T/C is 80.5%.

The experiment is the same for the next values; noted with them: second compound 3.16 µM; first compound 0.1 µM; active compounds read low.
As for `CC(C)n1c(=O)n(C)c2cnc3cc(F)c(-c4ccc(OCCCN5CCCCC5)nc4)cc3c21` + CN(C)c1ccc(Nc2c3ccc(NC(=O)CCN4CCCC4)cc3nc3cc(NC(=O)CCN4CCCC4)ccc23)cc1, the viability, T/C was 54.4%.

For `CC1COCCN1c1cc(-c2ccnn2C)c2ccnc(-c3ccn[nH]3)c2n1` (stereo unspecified) + CN(C)c1ccc(Nc2c3ccc(NC(=O)CCN4CCCC4)cc3nc3cc(NC(=O)CCN4CCCC4)ccc23)cc1, the viability, T/C was 48.3%.
